Data set [1] is described as follows: Cytotoxicity determination in HepG2.2.15 cells (CCK-8). The format is cell-based. The following applies: human, 6 days treatment, CCK-8, highest concentration 100 uM. From the text:
(§1) Example 2: Anti-Viral Assay in HepG2.2.15 Cells
(§2) 1.1. Cell Line • HepG2.2.15 (the HepG2.2.15 cell line can be produced by transfection of the HepG2 cell line as described in Sells, Chen, and Acs 1987 (Proc. Natl. Acad. Sci. USA 84:1005-1009), and the HepG2 cell line is available from ATCC® under number HB-8065™). Reagents • DMEM/F12 (INVITROGEN-11330032) • FBS (GIBCO-10099-141) • Dimethyl sulfoxide(DMSO) (SIGMA-D2650) • Penicillin-streptomycin solution (HYCLONE-SV30010) • NEAA (INVITROGEN-1114050) • L-Glutamine (INVITROGEN-25030081) • Geneticin Selective Antibiotic (G418, 500 mg/ml) (INVITROGEN-10131027) • Trypsinase digestion solution (INVITROGEN-25300062) • CCK8 (BIOLOTE-35004) • QIAamp 96 DNA Blood Kit (12) (QIAGEN-51162) • FastStart Universal Probe Mast Mix (ROCHE-04914058001)
(§3) 2.1. HBV Inhibitory Activity and Cytotoxicity Determination
(§4) Seed the cell HepG2.2.15 cells into 96-well plate in 2% FBS culture medium at the density of 40,000 cells/well and 5,000 cells/well for HBV inhibitory activity and cytotoxicity determination, respectively. After seeding, incubate the cell plates at 37° C., 5% CO2 overnight. The next day, medium containing compounds is added to the cell to treat the cells for 6 days with medium refreshed once in the middle of the treatment. 8 dose points with 3 folds dilution of each compound were adopted and the highest concentration of the compounds is 10 uM and 100 uM for HBV inhibitory activity and cytotoxicity determination, respectively.
After 6 days of compounds treatment, add 20 μl CCK-8 reagents to each well of cytotoxicity assay plates, incubate the plate at 37° C., 5% CO2 for 2.5 h and measure the absorbance at 450 nm wavelength, at the same time read the absorbance at 630 nm wavelength as reference.
(§5) EC50 and CC50 values are calculated by the GRAPHPAD PRISM software.

For data set [2], the system named is HBV. Description: Anti-viral assay in HepG2.2.15 cells: HBV inhibitory activity (HBV DNA in culture medium by q-PCR). The format is cell-based. As to conditions: Hepatitis B virus, HepG2.2.15, 144 h, HepG2.2.15 cells, 6 days treatment, HBV DNA in culture medium by q-PCR, highest concentration 10 uM; read-out: EC50.
Source text: as §1, §2, §3, §4
The HBV DAN change in the cell culture medium induced by the compounds is measured by q-PCR method. Briefly, the HBV DNA in the culture medium is extracted using QIAamp 96 DNA Blood Kit according to the manual and then quantified by q-PCR using the primers and probe in the table below.
as §5

As a reminder, the CC50 is the concentration giving 50% cytotoxicity. As usually defined, the EC50 is the concentration giving half of the maximal effect.

In turn, `CCOC(=O)C1=C([C@H]2CC[C@H](c3nc(CC(=O)O)co3)CC2)NC(c2nccs2)=NC1c1ccc(F)c(F)c1Cl` (single isomer, unassigned) [Compound I-23-B, (trans)-2-(2-(4-(6-(2-Chloro-3,4-difluorophenyl)-5-(ethoxycarbonyl)-2-(thiazol-2-yl)-3,6-dihydropyrimidin-4-yl)cyclohexyl)oxazol-4-yl)acetic Acid] yielded a CC50 at 6 days in data set [1] of 5480 nM. For the same compound, in data set [2], the concentration for a half-maximal effect (EC50) turned out to be 13 nM.

For the compound `CCOC(=O)C1=C(C2CCN(c3ncc(N(C)C)c(C(=O)O)n3)CC2)NC(c2nccs2)=NC1c1ccc(F)cc1Br` (single isomer, unassigned) [II-100-B, 2-(4-(6-(2-bromo-4-fluorophenyl)-5-(ethoxycarbonyl)-2-(thiazol-2-yl)-3,6-dihydropyrimidin-4-yl)piperidin-1-yl)-5-(dimethylamino)pyrimidine-4-carboxylic Acid], half-maximal cytotoxicity in data set [1] (CC50 at 6 days) was put at 24500 nM. In data set [2], the EC50 was determined as 22 nM.

The compound `CCOC(=O)C1=C(C2CCN(c3cnc(C)c(C(=O)O)n3)CC2)NC(c2nccs2)=NC1c1ccc(F)c(F)c1Cl` (single isomer, unassigned) [II-48-B, 6-(4-(6-(2-chloro-3,4-difluorophenyl)-5-(ethoxycarbonyl)-2-(thiazol-2-yl)-3,6-dihydropyrimidin-4-yl)piperidin-1-yl)-3-methylpyrazine-2-carboxylic Acid] came in with a CC50 at 6 days in data set [1] of 12900 nM. Also, the EC50 in data set [2] turned out to be 79 nM.

For the compound `COC(=O)C1=C([C@H]2CC[C@H](c3nc(CC(=O)O)c(C)o3)CC2)NC(c2nccs2)=NC1c1ccc(F)cc1Cl` (single isomer, unassigned) [Compound I-48-B, (trans)-2-(2-(4-(6-(2-Chloro-4-fluorophenyl)-5-(methoxycarbonyl)-2-(thiazol-2-yl)-3,6-dihydropyrimidin-4-yl)cyclohexyl)-5-methyloxazol-4-yl)acetic Acid], the midpoint of cytotoxicity in data set [1], the CC50 at 6 days, lay at 23000 nM. In data set [2], the EC50 was determined as 22 nM.

In data set [1], `COC(=O)C1=C([C@H]2CC[C@H](c3ncc(C4(C(=O)O)CC4)cn3)CC2)NC(c2nccs2)=NC1c1ccc(F)c(F)c1Cl` (single isomer, unassigned) [Compound I-46-C, 1-(2-((trans)-4-(6-(2-chloro-3,4-difluorophenyl)-5-(methoxycarbonyl)-2-(thiazol-2-yl)-3,6-dihydropyrimidin-4-yl)cyclohexyl)pyrimidin-5-yl)cyclopropanecarboxylic Acid] showed a CC50 at 6 days of 16100 nM. Further, in data set [2], the EC50 came out at 15 nM.

Compound `CCOC(=O)C1=C(C2CCN(c3ncc(F)c(C(=O)O)n3)CC2)NC(c2nccs2)=NC1c1ccc(F)c(F)c1Cl` (single isomer, unassigned) [II-62-B, 2-(4-(6-(2-Chloro-3,4-difluorophenyl)-5-(ethoxycarbonyl)-2-(thiazol-2-yl)-3,6-dihydropyrimidin-4-yl)piperidin-1-yl)-5-fluoropyrimidine-4-carboxylic Acid] showed a CC50 at 6 days in data set [1] of 6690 nM. In data set [2], the EC50 was 16 nM.

In turn, `CCOC(=O)C1=C(C2CCN(c3cc(C(=O)O)cc(C(F)(F)F)n3)CC2)NC(c2nccs2)=NC1c1ccc(F)c(F)c1Cl` (single isomer, unassigned) [II-38-B, 2-(4-(6-(2-chloro-3,4-difluorophenyl)-5-(ethoxycarbonyl)-2-(thiazol-2-yl)-3,6-dihydropyrimidin-4-yl)piperidin-1-yl)-6-(trifluoromethyl)isonicotinic Acid] registered a CC50 at 6 days in data set [1] of 3880 nM. Moreover, the EC50 in data set [2] stood at 81 nM.

As to `COC(=O)C1=C([C@H]2CC[C@H](c3nc(C(=O)O)co3)CC2)NC(c2nccs2)=NC1c1ccc(F)cc1C` (single isomer, unassigned) [Compound I-6-B, (trans)-2-(4-(6-(4-Fluoro-2-methylphenyl)-5-(methoxycarbonyl)-2-(thiazol-2-yl)-3,6-dihydropyrimidin-4-yl)cyclohexyl)oxazole-4-carboxylic Acid], in data set [1], the midpoint of cytotoxicity, the CC50 at 6 days, lay at 17400 nM. Further, the EC50 in data set [2] came out at 72 nM.

In data set [1], `CCOC(=O)C1=C(C2CCN(c3ccc(C(=O)O)nc3Cl)CC2)NC(c2nccs2)=NC1c1ccc(F)c(F)c1Cl` (single isomer, unassigned) [II-42-B, 6-Chloro-5-(4-(6-(2-chloro-3,4-difluorophenyl)-5-(ethoxycarbonyl)-2-(thiazol-2-yl)-3,6-dihydropyrimidin-4-yl)piperidin-1-yl)picolinic Acid] registered a CC50 at 6 days of 2570 nM. In addition, in data set [2], the EC50 turned out to be 56 nM.

In turn, `COC(=O)C1=C(C2CCN(c3ncc(CC(=O)O)cn3)CC2)NC(c2nccs2)=NC1c1ccc(F)c(F)c1Cl` (single isomer, unassigned) [II-29-B, 2-(2-(4-(6-(2-Chloro-3,4-difluorophenyl)-5-(methoxycarbonyl)-2-(thiazol-2-yl)-3,6-dihydropyrimidin-4-yl)piperidin-1-yl)pyrimidin-5-yl)acetic Acid] displayed a CC50 at 6 days in data set [1] of 9460 nM. Moreover, the EC50 in data set [2] was less than 4.6 nM.

In data set [1], `CCOC(=O)C1=C(C2CCN(c3nc(C(F)(F)F)c(C(=O)O)s3)CC2)NC(c2nccs2)=NC1c1ccc(F)c(F)c1Cl` (single isomer, unassigned) [II-79-B, 2-(4-(6-(2-Chloro-3,4-difluorophenyl)-5-(ethoxycarbonyl)-2-(thiazol-2-yl)-3,6-dihydropyrimidin-4-yl)piperidin-1-yl)-4-(trifluoromethyl)thiazole-5-carboxylic Acid] showed a CC50 at 6 days of 1140 nM. Moreover, the EC50 in data set [2] worked out at 13 nM.

As to `CCOC(=O)C1=C([C@H]2CC[C@H](c3ccc(C(=O)O)cc3)CC2)NC(c2nccs2)=NC1c1ccc(F)c(F)c1Cl` (single isomer, unassigned) [Compound I-44-A, (trans)-4-(4-(6-(2-Chloro-3,4-difluorophenyl)-5-(ethoxycarbonyl)-2-(thiazol-2-yl)-3,6-dihydropyrimidin-4-yl)cyclohexyl)benzoic Acid], the CC50 at 6 days in data set [1] turned out to be 1810 nM. In addition, in data set [2], the EC50 stood at 8.5 nM.

Compound `COC(=O)C1=C(C2CCN(c3ncc(C)c(C(=O)O)n3)CC2)NC(c2nccs2)=NC1c1ccc(F)c(F)c1Cl` (single isomer, unassigned) [II-27-B, 2-(4-(6-(2-Chloro-3,4-difluorophenyl)-5-(methoxycarbonyl)-2-(thiazol-2-yl)-3,6-dihydropyrimidin-4-yl)piperidin-1-yl)-5-methylpyrimidine-4-carboxylic Acid] came in with a CC50 at 6 days in data set [1] of 20200 nM. Further, in data set [2], the EC50 is 5.5 nM.

In the case of `COC(=O)C1=C([C@H]2CC[C@H](c3ncc(CC(=O)O)cn3)CC2)NC(c2nccs2)=NC1c1ccc(F)cc1Cl` (single isomer, unassigned) [Compound I-50-A, 2-(2-((trans)-4-(6-(2-chloro-4-fluorophenyl)-5-(methoxycarbonyl)-2-(thiazol-2-yl)-3,6-dihydropyrimidin-4-yl)cyclohexyl)pyrimidin-5-yl)acetic Acid], in data set [1], the 50% cytotoxic concentration (CC50) at 6 days came out at 16400 nM. The EC50 in data set [2] stood at 11 nM.

As to `COC(=O)C1=C([C@H]2CC[C@H](c3nc(CC(C)(C)C(=O)O)co3)CC2)NC(c2nccs2)=NC1c1ccc(F)c(F)c1Cl` (single isomer, unassigned) [Compound I-25-B, (trans)-3-(2-(4-(6-(2-Chloro-3,4-difluorophenyl)-5-(methoxycarbonyl)-2-(thiazol-2-yl)-3,6-dihydropyrimidin-4-yl)cyclohexyl)oxazol-4-yl)-2,2-dimethylpropanoic acid], in data set [1], it took 7900 nM to reach half-maximal cytotoxicity (CC50 at 6 days). Also, in data set [2], the EC50 turned out to be 6.1 nM.

In data set [1], `CCOC(=O)C1=C(C2CCN(c3cnc(C(=O)O)c(C)n3)CC2)NC(c2nccs2)=NC1c1ccc(F)c(F)c1Cl` (single isomer, unassigned) [II-49-B, 5-(4-(6-(2-Chloro-3,4-difluorophenyl)-5-(ethoxycarbonyl)-2-(thiazol-2-yl)-3,6-dihydropyrimidin-4-yl)piperidin-1-yl)-3-methylpyrazine-2-carboxylic Acid] had a CC50 at 6 days of 110 nM. Moreover, in data set [2], the EC50 stood at 50 nM.

Compound `CCOC(=O)C1=C(C2CCN(c3ncc(CC(=O)O)cn3)CC2)NC(c2nccs2)=NC1c1cccc(F)c1Cl` (single isomer, unassigned) [II-23-B, 2-(2-(4-(6-(2-Chloro-3-fluorophenyl)-5-(ethoxycarbonyl)-2-(thiazol-2-yl)-3,6-dihydropyrimidin-4-yl)piperidin-1-yl)pyrimidin-5-yl)acetic Acid] came in with a CC50 at 6 days in data set [1] of 3880 nM. Also, the EC50 in data set [2] was less than 4.6 nM.

(Values after patent publication US11053235B2, “Substituted 1,4-dihydropyrimidines for the treatment of HBV infection or HBV-induced diseases” (Janssen Sciences Ireland Unlimited Company, priority 2018, dated 2021).)
